Columns and labels:
Human O-GlcNAcase = molecular target: T1, Human O-GlcNAcase (Homo sapiens, UniProt O60502); experiment: Inhibition of human O-GlcNAcase; format: biochemical; settings: Table 2
T1 construct: made in house
T1 sequence (O60502 1-916): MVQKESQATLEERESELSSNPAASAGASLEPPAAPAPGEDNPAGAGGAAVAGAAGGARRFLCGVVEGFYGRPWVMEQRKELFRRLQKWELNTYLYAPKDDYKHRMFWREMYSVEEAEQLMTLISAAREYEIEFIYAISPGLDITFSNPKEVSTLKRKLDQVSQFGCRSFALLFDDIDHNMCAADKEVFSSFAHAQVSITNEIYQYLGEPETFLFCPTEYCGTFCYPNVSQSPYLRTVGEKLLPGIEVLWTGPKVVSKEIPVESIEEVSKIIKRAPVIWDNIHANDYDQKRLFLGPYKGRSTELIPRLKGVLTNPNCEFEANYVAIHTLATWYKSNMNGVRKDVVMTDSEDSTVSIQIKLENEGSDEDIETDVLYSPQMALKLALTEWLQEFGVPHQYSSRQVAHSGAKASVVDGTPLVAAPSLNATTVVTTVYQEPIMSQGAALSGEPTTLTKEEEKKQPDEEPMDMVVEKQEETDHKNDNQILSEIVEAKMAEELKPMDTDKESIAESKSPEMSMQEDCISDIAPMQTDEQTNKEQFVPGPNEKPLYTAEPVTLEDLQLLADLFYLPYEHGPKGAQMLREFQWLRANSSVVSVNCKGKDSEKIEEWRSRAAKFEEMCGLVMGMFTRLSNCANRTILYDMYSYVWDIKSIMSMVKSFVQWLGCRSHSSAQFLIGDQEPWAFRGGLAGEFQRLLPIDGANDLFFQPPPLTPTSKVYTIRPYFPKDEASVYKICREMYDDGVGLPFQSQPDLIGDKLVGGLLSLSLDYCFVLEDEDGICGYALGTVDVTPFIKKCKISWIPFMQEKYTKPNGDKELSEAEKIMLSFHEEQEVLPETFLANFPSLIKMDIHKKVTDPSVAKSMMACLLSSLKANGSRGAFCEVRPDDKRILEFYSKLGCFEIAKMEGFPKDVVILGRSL
Description: Human O-GlcNAcase was also prepared and tested according to the procedures described in Gao et al., J. Biol. Chem. 2001, 276, 9838-9845 and Macauley et al., J. Am. Chem. Soc. 2005, 127, 17202-17203.

[1] = molecular target: Bacteroids fragilis O-GlcNAcase (Bacteroides fragilis, UniProt Q5L8V6); experiment: Michaelis-Menten/Lineweaver-Burk kinetic inhibition of O-GlcNAcase with 4MU-NAG substrate; format: biochemical
Chain of Bacteroids fragilis O-GlcNAcase (Q5L8V6 entry or part of it): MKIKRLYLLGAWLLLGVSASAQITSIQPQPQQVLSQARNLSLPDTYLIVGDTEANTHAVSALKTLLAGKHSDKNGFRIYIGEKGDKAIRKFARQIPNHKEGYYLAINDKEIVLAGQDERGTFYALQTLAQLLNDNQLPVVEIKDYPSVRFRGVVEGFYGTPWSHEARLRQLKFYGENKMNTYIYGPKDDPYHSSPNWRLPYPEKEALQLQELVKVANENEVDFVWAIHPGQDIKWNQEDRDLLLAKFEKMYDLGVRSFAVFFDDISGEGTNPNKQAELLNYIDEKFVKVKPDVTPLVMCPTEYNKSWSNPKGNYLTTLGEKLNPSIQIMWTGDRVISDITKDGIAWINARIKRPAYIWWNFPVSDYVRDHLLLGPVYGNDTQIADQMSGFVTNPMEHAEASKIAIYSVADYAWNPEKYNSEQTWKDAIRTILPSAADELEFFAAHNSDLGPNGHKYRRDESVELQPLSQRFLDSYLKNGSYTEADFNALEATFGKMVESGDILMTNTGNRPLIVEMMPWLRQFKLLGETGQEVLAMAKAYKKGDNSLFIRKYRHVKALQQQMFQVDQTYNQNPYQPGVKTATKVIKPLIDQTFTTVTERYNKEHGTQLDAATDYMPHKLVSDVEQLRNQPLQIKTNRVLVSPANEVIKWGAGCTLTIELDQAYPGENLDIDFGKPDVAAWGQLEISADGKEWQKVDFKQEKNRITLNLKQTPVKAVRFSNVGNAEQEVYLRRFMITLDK
Description: Bacteroids fragilis O-GlcNAcase, which is highly homologous to human O-GlcNAcase, was prepared as follows. Based on the genome sequence of B. fragilis (NCTC 9343) as disclosed in GenBank accession no. CR626927 (Oct. 23, 2008), a DNA fragment encoding the B. fragilis O-GlcNAcse was amplified via polymerase chain reaction (PCR), using the primers of: 5′-[…]-3′ (SEQ ID NO:1) (forward primer) and 5′-[…]-3′ (SEQ ID NO:2) (reverse primer). The PCR product was cloned into pGEM-T Easy vector (Promega) via cloning sites Nde1 and Xho1 and then subcloned into pET21b vector to produce expression plasmid pOGA, which encodes a fusion protein including O-GlcNAcase and a His6 tag at the C-terminus
Plasmid pOGA was transformed into E. coli BL21 (DE3) cells and a positive transformant was cultured in Luria-Bertani (LB) medium with ampicillin (100 μg/mL) overnight. The E. coli culture, transferred to fresh LB medium, was incubated at 37° C. and, when A600 of the culture reached 0.6, isopropyl-β-D-thiogalactopyranoside (final conc: 250 μM) was added to induce expression of O-GlcNAcse. The induced cells were further cultured at 16° C. overnight, harvested, and disrupted to produce a cell lysate. Upon centrifugation, the supernatant thus obtained was loaded onto a nickel-affinity column. After elution, a fraction containing O-GlcNAcse was collected and the enzyme contained therein was further purified by gel filtration using a Superdex 6 column. See Dennis et al., Nat Struct Mol Biol 2006, 13: 365-71. The purified protein was concentrated using a 10 kDa-cutoff concentrator and dialyzed against 20 mM HEPES (pH 7.5).
The reaction conditions for each enzyme are shown below:
O-GlcNAcase: reaction mixture (0.5 nM O-GlcNAcase (200 μL) in 50 mM citric acid, 100 mM NaCl, 0.1% BSA, 0.05-1.5 mM substrate, pH 4.25) was incubated at 30° C. for 25 minutes. The enzyme activity at different time points was determined by measuring the levels of the fluorescent signals (excitation wavelength: 360 nm; emission wavelength: 460 nm) released from 4-methylumbelliferone, a product of the enzyme reaction.
In these reactions, the substrate concentrations were three to five fold of the concentration used for determining KM (absent compounds) and the ratio between the enzyme and the compound was 0.1-0.5 nM to 0.3 nM-200 uM. The data thus obtained were analyzed by the Lineweaver-Burk plot. The K1 values were determined by the double reciprocal plot (1/V vs. 1/[S]). More specifically, the Km values for each enzyme in the presence of one of the test compounds first determined and these values were further plotted in view of the concentrations of the compound. K1 was determined by calculating the negative value of the resulting x-intercept. The selectivity of each compound was calculated by the formula: K1 O-GlcNAcase/K1 Hex B.

With `CC(=O)NC1CN(CCCCCCCNC(=O)CCCCC2SCC3NC(=O)NC32)C(CO)C(O)C1O` (stereo not shown) [Compound 5] the “Selectivity (KI O-GlcNAcase/KI HEX)” value (Human O-GlcNAcase; Human O-GlcNAcase over human HEX B) was 5,400, the Ki (Human O-GlcNAcase; Human O-GlcNAcase) was 145 ± 1.77 µM and the Ki [1] was 69.6 ± 1.77 µM. The “Selectivity (KI O-GlcNAcase/KI HEX)” value ([1]; Bacteroids fragilis O-GlcNAcase over human HEX B, Table 1) was 2,600.

Reference: patent US8466291B2, “1,5-dideoxy-1,5-imino-D-glucitol compounds” (Academia Sinica, priority 2008, dated 2013)
